The values that follow are results of earlier work, collected in US9050475B2, “High SPF sunscreen compositions” (MD SOLARSCIENCES CORP., priority 2010, dated 2015).

For this data set the following is noted: known UV-A or UV-B protection properties of FDA-approved sunscreens.
Take `CCCCC(CC)COC(=O)c1ccccc1O` (stereo not shown) [Octisalate, 2-ethylhexyl salicylate]: the “Range Covered” value is on record as “UV-B (UV-B: 290-320 nm)”.

Consider `CCCCC(CC)COC(=O)C(C#N)=C(c1ccccc1)c1ccccc1` (stereo not shown) [Octocrylene, 2-ethylhexyl-2-cyano-3.3 diphenylacrylate], for which the “Range Covered” value is given as “UV-B (UV-B: 290-320 nm)”.

For `COc1ccc(C(=O)c2ccccc2)c(O)c1` [Oxybenzone], the “Range Covered” value was “UV-B, UV-A2”.

For `CC1CC(OC(=O)c2ccccc2O)CC(C)(C)C1` (stereo not shown) [Homosalate], the “Range Covered” value is given as “UV-B (UV-B: 290-320 nm)”.

On to `COc1cc(O)c(C(=O)c2ccccc2)cc1S(=O)(=O)O` [Sulisobenzone], for which the “Range Covered” value is “UV-B, UV-A2”.

On to `CCCCC(CC)COC(=O)c1ccc(N(C)C)cc1` (stereo not shown) [Padimate O, octyl dimethyl PABA], for which the “Range Covered” value was “UV-B (UV-B: 290-320 nm)”.

Consider `CCOCCOC(=O)C=Cc1ccc(OC)cc1` [Cinoxate, 2-ethoxyethylp-methoxycinnamate], for which the “Range Covered” value is on record as “UV-B (UV-B: 290-320 nm)”.
